{"source": "patent US8921362B2", "about": "“6,7-dialkoxy quinazoline derivatives and methods of treating drug resistant and other tumors” (Natco Pharma Limited, priority 2008, dated 2014)", "assay_in_all_cases": "KinomeScan", "assay_type_in_all_cases": "binding", "details_in_all_cases": "read-out: % Ctrl @ 10000 nM", "key": {"PIK3CG": {"target": "T1, PIK3CG (Homo sapiens, UniProt P48736)", "T1 construct": "host or cells: T7 phage in E. coli host derived from BL21", "how_it_was_run": "(§1)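 Each kinase was expressed as a T7 phage fusion, with lysates produced in log-phase BL21-derived E. coli. Captured phage after compound competition was measured by qPCR.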"}, "BRAF(V600E)": {"target": "T2, BRAF(V600E) (Homo sapiens, UniProt P15056, V600E)", "T2 construct": "host or cells: E. coli host derived from BL21", "T2 sequence (P15056 whole entry V600E)": "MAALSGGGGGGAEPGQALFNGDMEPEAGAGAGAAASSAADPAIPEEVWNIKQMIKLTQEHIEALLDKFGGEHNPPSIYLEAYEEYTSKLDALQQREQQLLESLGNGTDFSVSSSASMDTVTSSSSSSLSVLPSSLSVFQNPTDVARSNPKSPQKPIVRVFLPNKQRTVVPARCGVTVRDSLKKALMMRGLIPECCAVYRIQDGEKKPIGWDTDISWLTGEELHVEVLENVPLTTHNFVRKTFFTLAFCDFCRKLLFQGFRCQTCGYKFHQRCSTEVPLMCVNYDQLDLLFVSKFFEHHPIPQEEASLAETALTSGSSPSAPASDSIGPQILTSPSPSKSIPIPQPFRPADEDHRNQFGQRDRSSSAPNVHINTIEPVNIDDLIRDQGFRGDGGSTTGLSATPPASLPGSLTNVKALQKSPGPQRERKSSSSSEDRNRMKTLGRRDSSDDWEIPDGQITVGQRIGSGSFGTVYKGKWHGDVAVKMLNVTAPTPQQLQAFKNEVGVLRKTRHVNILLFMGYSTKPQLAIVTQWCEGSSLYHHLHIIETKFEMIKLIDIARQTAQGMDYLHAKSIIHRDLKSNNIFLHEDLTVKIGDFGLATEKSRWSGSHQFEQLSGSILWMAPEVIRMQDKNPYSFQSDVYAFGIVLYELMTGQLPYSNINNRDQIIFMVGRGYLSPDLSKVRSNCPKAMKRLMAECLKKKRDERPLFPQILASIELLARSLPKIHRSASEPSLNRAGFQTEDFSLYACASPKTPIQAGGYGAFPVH", "how_it_was_run": "as §1"}, "EPHA2": {"target": "T3, EPHA2 (Homo sapiens, UniProt P29317)", "T3 construct": "purchased Ambit Biosciences Corp; host or cells: T7 phage in E. coli host derived from BL21", "T3 sequence (P29317 24-976)": "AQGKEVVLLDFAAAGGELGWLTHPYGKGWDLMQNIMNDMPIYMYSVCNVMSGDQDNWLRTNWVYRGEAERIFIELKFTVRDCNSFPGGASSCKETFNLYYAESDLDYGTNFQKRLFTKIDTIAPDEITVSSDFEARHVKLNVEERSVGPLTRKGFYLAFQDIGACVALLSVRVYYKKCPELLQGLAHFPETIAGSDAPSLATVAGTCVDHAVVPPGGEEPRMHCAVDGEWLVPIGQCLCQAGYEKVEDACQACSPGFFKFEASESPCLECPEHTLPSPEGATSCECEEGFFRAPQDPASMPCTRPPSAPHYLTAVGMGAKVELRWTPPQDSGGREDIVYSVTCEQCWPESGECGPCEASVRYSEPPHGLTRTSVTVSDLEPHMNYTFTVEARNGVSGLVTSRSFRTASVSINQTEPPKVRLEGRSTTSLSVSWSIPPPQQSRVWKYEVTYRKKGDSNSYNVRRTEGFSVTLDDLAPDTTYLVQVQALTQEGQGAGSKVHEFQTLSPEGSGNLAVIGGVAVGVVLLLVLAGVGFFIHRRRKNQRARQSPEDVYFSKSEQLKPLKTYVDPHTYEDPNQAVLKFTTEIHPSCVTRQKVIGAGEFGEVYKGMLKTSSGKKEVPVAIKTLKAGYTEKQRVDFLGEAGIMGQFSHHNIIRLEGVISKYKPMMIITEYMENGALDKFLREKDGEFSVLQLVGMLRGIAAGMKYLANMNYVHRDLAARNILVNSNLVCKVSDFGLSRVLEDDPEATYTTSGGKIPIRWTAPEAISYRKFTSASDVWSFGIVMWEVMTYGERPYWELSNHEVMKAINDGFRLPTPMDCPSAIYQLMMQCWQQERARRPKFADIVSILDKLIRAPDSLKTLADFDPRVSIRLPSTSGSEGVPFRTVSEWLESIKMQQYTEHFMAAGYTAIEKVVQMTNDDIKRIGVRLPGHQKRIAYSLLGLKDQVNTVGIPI", "how_it_was_run": "as §1"}, "BRK": {"target": "T4, BRK (Homo sapiens, UniProt Q13882)", "T4 construct": "host or cells: E. coli host derived from BL21", "how_it_was_run": "as §1"}, "TGFBR1": {"target": "T5, TGFBR1 (Homo sapiens, UniProt P36897)", "T5 construct": "host or cells: T7 phage grown in E. coli (BL21-derived)", "T5 sequence (P36897 34-503)": "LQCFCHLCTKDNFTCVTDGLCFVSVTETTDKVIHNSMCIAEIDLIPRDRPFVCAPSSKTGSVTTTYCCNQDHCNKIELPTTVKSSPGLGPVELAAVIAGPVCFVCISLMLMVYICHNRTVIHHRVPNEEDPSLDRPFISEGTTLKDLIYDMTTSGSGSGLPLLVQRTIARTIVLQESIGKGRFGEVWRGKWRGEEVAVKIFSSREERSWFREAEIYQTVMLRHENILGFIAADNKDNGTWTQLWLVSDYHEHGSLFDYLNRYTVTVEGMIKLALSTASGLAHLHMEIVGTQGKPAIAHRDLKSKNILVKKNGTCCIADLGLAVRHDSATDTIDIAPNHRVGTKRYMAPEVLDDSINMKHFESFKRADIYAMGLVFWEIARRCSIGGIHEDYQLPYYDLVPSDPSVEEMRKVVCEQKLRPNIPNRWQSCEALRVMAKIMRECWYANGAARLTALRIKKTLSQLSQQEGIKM", "how_it_was_run": "as §1"}, "FGR": {"target": "T6, FGR (Homo sapiens, UniProt P09769)", "T6 construct": "host or cells: T7 phage in E. coli host derived from BL21", "how_it_was_run": "as §1"}, "AMPK-alpha1": {"target": "T7, AMPK-alpha1 (Homo sapiens, UniProt Q13131)", "T7 construct": "host or cells: E. coli (BL21-derived), T7 phage lysate", "how_it_was_run": "as §1"}, "SRC": {"target": "T8, SRC (Homo sapiens, UniProt P12931)", "T8 construct": "host or cells: T7 phage grown in E. coli (BL21-derived)", "how_it_was_run": "as §1"}, "ULK3": {"target": "T9, ULK3 (Homo sapiens, UniProt Q6PHR2)", "T9 construct": "host or cells: E. coli host derived from BL21, T7 phage", "how_it_was_run": "as §1"}, "MYO3A": {"target": "T10, MYO3A (Homo sapiens, UniProt Q8NEV4)", "T10 construct": "host or cells: T7 phage grown in E. coli host derived from BL21", "how_it_was_run": "as §1"}, "BTK": {"target": "T11, BTK (Homo sapiens, UniProt Q06187)", "T11 construct": "host or cells: E. coli host derived from BL21", "how_it_was_run": "as §1"}, "MINK": {"target": "T12, MINK (Homo sapiens, UniProt Q8N4C8)", "T12 construct": "host or cells: E. coli host derived from the BL21 strain, infected with T7 phage", "how_it_was_run": "as §1"}, "[1]": {"target": "T13, RPS6KA5(Kin.Dom.-2-C-terminal) (Homo sapiens, UniProt O75582)", "T13 construct": "RPS6KA5(Kin.Dom.-2-C-terminal); host or cells: E. coli host derived from BL21, T7 phage display", "T13 sequence (O75582 426-687 limits assumed)": "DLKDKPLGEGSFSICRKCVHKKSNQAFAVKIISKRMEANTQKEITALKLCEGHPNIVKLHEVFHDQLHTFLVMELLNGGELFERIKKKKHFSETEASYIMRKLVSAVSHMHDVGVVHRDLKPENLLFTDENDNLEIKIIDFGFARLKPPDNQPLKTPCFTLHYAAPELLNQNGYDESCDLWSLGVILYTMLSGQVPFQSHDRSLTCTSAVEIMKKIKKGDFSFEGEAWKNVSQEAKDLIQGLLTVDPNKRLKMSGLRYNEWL", "how_it_was_run": "as §1"}, "EPHA4": {"target": "T14, EPHA4 (Homo sapiens, UniProt P54764)", "T14 construct": "purchased Ambit Biosciences Corp; host or cells: T7 phage in E. coli host derived from BL21", "T14 sequence (P54764 20-986)": "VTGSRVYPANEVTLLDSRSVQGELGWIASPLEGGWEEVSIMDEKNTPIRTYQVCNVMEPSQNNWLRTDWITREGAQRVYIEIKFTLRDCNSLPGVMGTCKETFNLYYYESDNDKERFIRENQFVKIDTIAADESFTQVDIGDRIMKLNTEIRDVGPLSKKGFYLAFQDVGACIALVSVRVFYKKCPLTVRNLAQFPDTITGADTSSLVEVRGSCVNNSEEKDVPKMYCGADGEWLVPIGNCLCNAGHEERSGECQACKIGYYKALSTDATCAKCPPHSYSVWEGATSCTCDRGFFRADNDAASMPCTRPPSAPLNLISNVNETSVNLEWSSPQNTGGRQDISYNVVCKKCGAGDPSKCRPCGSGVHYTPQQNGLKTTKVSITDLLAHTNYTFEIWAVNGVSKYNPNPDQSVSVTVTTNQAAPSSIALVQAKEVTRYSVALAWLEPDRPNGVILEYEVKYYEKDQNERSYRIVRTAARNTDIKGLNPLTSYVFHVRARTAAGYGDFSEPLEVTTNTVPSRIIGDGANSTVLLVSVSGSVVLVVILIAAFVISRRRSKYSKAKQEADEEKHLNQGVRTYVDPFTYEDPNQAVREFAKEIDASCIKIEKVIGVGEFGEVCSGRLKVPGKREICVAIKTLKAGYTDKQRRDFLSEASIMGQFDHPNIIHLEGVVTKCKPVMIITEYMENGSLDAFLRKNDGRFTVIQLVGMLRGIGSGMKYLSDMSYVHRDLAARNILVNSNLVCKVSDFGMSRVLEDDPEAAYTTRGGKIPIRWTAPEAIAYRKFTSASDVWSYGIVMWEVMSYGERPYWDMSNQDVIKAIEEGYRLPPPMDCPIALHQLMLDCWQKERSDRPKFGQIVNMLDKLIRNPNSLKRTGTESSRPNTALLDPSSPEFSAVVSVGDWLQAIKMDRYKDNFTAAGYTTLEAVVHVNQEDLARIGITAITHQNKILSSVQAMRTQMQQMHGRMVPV", "how_it_was_run": "as §1"}, "SLK": {"target": "T15, SLK (Homo sapiens, UniProt Q9H2G2)", "T15 construct": "host or cells: T7 phage grown in E. coli (BL21-derived)", "how_it_was_run": "as §1"}, "NEK1": {"target": "T16, NEK1 (Homo sapiens, UniProt Q96PY6)", "T16 construct": "host or cells: T7 phage grown in E. coli host derived from BL21", "how_it_was_run": "as §1"}, "CAMK2B": {"target": "T17, CAMK2B (Homo sapiens, UniProt Q13554)", "T17 construct": "host or cells: E. coli host derived from BL21", "how_it_was_run": "as §1"}, "AKT1": {"target": "T18, AKT1 (Homo sapiens, UniProt P31749)", "T18 construct": "host or cells: E. coli (BL21-derived), T7 phage lysate", "how_it_was_run": "as §1"}, "PIK3CA(E545K)": {"target": "T19, PIK3CA(E545K) (Homo sapiens, UniProt P42336, E545K)", "T19 construct": "host or cells: E. coli host derived from BL21, infected with T7 phage", "how_it_was_run": "as §1"}, "EGFR(L861Q)": {"target": "T20, EGFR(L861Q) (Homo sapiens, UniProt P00533, L861Q)", "T20 construct": "purchased Ambit Biosciences Corp; host or cells: T7 phage in E. coli host derived from BL21", "T20 sequence (P00533 25-1210 L861Q)": "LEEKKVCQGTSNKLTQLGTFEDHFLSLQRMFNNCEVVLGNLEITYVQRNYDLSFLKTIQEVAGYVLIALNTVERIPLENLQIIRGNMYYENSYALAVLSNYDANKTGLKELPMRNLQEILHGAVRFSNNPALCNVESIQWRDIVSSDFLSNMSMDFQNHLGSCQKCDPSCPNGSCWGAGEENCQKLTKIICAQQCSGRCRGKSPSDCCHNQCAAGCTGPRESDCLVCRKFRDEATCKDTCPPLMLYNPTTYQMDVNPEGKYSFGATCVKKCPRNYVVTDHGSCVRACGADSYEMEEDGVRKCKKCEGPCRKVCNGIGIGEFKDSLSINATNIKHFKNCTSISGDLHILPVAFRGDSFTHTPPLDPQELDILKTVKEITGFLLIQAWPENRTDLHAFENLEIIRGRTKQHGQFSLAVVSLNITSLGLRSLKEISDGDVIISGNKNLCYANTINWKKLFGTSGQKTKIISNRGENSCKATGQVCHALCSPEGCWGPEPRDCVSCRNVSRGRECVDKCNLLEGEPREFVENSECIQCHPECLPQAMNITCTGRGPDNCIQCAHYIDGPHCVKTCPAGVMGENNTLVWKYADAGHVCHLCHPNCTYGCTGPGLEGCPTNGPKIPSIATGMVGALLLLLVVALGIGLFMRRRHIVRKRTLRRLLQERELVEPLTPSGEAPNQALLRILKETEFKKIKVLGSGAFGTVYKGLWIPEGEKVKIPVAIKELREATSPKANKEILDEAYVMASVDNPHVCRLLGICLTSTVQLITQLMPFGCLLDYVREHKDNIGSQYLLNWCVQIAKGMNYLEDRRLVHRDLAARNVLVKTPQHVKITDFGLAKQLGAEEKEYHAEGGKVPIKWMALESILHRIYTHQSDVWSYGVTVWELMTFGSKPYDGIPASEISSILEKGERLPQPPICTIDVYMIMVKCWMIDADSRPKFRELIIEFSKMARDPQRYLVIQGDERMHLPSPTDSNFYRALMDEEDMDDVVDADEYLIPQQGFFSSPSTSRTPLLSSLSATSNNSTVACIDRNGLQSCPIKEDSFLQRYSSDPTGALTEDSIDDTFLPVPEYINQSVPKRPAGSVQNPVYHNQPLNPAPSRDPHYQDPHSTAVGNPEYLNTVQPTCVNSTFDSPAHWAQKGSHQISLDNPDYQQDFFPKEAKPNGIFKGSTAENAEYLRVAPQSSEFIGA", "how_it_was_run": "as §1"}, "TGFBR2": {"target": "T21, TGFBR2 (Homo sapiens, UniProt P37173)", "T21 construct": "host or cells: T7 phage grown in E. coli (BL21-derived)", "how_it_was_run": "as §1"}, "IKK-beta": {"target": "T22, IKK-beta (Homo sapiens, UniProt O14920)", "T22 construct": "host or cells: T7 phage grown in E. coli host derived from BL21", "how_it_was_run": "as §1"}, "FLT3(N8411)": {"target": "T23, FLT3(N8411) (Homo sapiens, UniProt P36888, N841I)", "T23 construct": "host or cells: T7 phage in E. coli host derived from BL21", "how_it_was_run": "as §1"}, "PDPK1": {"target": "T24, PDPK1 (Homo sapiens, UniProt O15530)", "T24 construct": "host or cells: E. coli host derived from BL21, infected with T7 phage", "how_it_was_run": "as §1"}, "CAMK1D": {"target": "T25, CAMK1D (Homo sapiens, UniProt Q8IU85)", "T25 construct": "host or cells: E. coli host derived from BL21", "how_it_was_run": "as §1"}, "CLK3": {"target": "T26, CLK3 (Homo sapiens, UniProt P49761)", "T26 construct": "host or cells: T7 phage in E. coli host derived from BL21", "how_it_was_run": "as §1"}, "SgK110": {"target": "T27, SgK110 (Homo sapiens, UniProt P0C264)", "T27 construct": "host or cells: T7 phage grown in E. coli (BL21-derived)", "how_it_was_run": "as §1"}, "RAF1": {"target": "T28, RAF1 (Homo sapiens, UniProt P04049)", "T28 construct": "host or cells: E. coli host derived from BL21, T7 phage display", "how_it_was_run": "as §1"}, "CDC2L2": {"target": "T29, CDC2L2 (Homo sapiens, UniProt Q9UQ88)", "T29 construct": "host or cells: T7 phage in E. coli host derived from BL21", "how_it_was_run": "as §1"}, "MYLK": {"target": "T30, MYLK (Homo sapiens, UniProt Q15746)", "T30 construct": "host or cells: T7 phage grown in E. coli host derived from BL21", "how_it_was_run": "as §1"}, "CSNK1G2": {"target": "T31, CSNK1G2 (Homo sapiens, UniProt P78368)", "T31 construct": "purchased Ambit Biosciences Corp (KinomeScan); host or cells: T7 phage in E. coli host derived from BL21", "how_it_was_run": "as §1"}, "EGFR(G719S)": {"target": "T32, EGFR(G719S) (Homo sapiens, UniProt P00533, G719S)", "T32 construct": "purchased Ambit Biosciences Corp (KinomeScan); host or cells: T7 phage in E. coli host derived from BL21", "how_it_was_run": "as §1"}, "CAMK2A": {"target": "T33, CAMK2A (Homo sapiens, UniProt Q9UQM7)", "T33 construct": "host or cells: E. coli host derived from BL21", "how_it_was_run": "as §1"}}, "data": [{"smiles": "C#Cc1cccc(Nc2ncnc3cc(OC)c(OCCCN4CCOCC4)cc23)c1", "note": "[NRC-2694, N-(3-ethynylphenyl)-7-methoxy-6-[3-(4-morpholinyl)propoxy]-4-quinazolinamine]", "values": [{"measurement": "remaining binding at 10 µM", "setting": "PIK3CG", "result": 78, "unit": "%"}, {"measurement": "remaining binding at 10 µM", "setting": "BRAF(V600E)", "result": 73, "unit": "%"}, {"measurement": "remaining binding at 10 µM", "setting": "EPHA2", "result": 100, "unit": "%"}, {"measurement": "remaining binding at 10 µM", "setting": "BRK", "result": 46, "unit": "%"}, {"measurement": "remaining binding at 10 µM", "setting": "TGFBR1", "result": 83, "unit": "%"}, {"measurement": "remaining binding at 10 µM", "setting": "FGR", "result": 19, "unit": "%"}, {"measurement": "remaining binding at 10 µM", "setting": "AMPK-alpha1", "result": 50, "unit": "%"}, {"measurement": "remaining binding at 10 µM", "setting": "SRC", "result": 24, "unit": "%"}, {"measurement": "remaining binding at 10 µM", "setting": "ULK3", "result": 62, "unit": "%"}, {"measurement": "remaining binding at 10 µM", "setting": "MYO3A", "result": 70, "unit": "%"}, {"measurement": "remaining binding at 10 µM", "setting": "BTK", "result": 77, "unit": "%"}, {"measurement": "remaining binding at 10 µM", "setting": "MINK", "result": 16, "unit": "%"}, {"measurement": "remaining binding at 10 µM", "setting": "[1]", "result": 57, "unit": "%"}, {"measurement": "remaining binding at 10 µM", "setting": "EPHA4", "result": 64, "unit": "%"}, {"measurement": "remaining binding at 10 µM", "setting": "SLK", "result": 0.3, "unit": "%"}, {"measurement": "remaining binding at 10 µM", "setting": "NEK1", "result": 66, "unit": "%"}, {"measurement": "remaining binding at 10 µM", "setting": "CAMK2B", "result": 77, "unit": "%"}, {"measurement": "remaining binding at 10 µM", "setting": "AKT1", "result": 100, "unit": "%"}, {"measurement": "remaining binding at 10 µM", "setting": "PIK3CA(E545K)", "result": 100, "unit": "%"}, {"measurement": "remaining binding at 10 µM", "setting": "EGFR(L861Q)", "result": 0, "unit": "%"}, {"measurement": "remaining binding at 10 µM", "setting": "TGFBR2", "result": 86, "unit": "%"}, {"measurement": "remaining binding at 10 µM", "setting": "IKK-beta", "result": 51, "unit": "%"}, {"measurement": "remaining binding at 10 µM", "setting": "FLT3(N8411)", "result": 16, "unit": "%"}, {"measurement": "remaining binding at 10 µM", "setting": "PDPK1", "result": 94, "unit": "%"}, {"measurement": "remaining binding at 10 µM", "setting": "CAMK1D", "result": 83, "unit": "%"}, {"measurement": "remaining binding at 10 µM", "setting": "CLK3", "result": 45, "unit": "%"}, {"measurement": "remaining binding at 10 µM", "setting": "SgK110", "result": 83, "unit": "%"}, {"measurement": "remaining binding at 10 µM", "setting": "RAF1", "result": 100, "unit": "%"}, {"measurement": "remaining binding at 10 µM", "setting": "CDC2L2", "result": 37, "unit": "%"}, {"measurement": "remaining binding at 10 µM", "setting": "MYLK", "result": 62, "unit": "%"}, {"measurement": "remaining binding at 10 µM", "setting": "CSNK1G2", "result": 76, "unit": "%"}, {"measurement": "remaining binding at 10 µM", "setting": "EGFR(G719S)", "result": 0, "unit": "%"}, {"measurement": "remaining binding at 10 µM", "setting": "CAMK2A", "result": 63, "unit": "%"}]}]}
